Tests used:
[1] = tested on: inflammatory lesions (papules, pustules) of patients with papulopustular rosacea; test: Inflammatory lesion count change from baseline, 12-week vehicle-controlled study of E-BPO cream; format: in vivo, human
Description: (§1) Description: A multi-center, double-blind, randomized, vehicle-controlled, dose-range study of encapsulated 5% benzoyl peroxide (E-BPO) Cream and vehicle cream was performed to assess the efficacy and safety of E-BPO compared to vehicle. Study duration was 12 weeks and included approximately 350 male and female patients afflicted with papulopustular rosacea. Patients were at least 18 years of age, and met the inclusion/exclusion criteria described herein.
(§2) Dosing: Patients were randomized in a 2:1 ratio to the study product or vehicle treatment group, respectively. […]
(§3) Patients were admitted into the study after meeting all inclusion/exclusion criteria, including a clinical diagnosis of rosacea and after written informed consent has been obtained. […] At each visit, a 5-point IGA scale of rosacea; rosacea erythema, and telangiectasia; and inflammatory (papules, pustules) lesion counts were performed and recorded.
(§4) Evaluation of efficacy: The first application of the test product was applied at the investigational site at the end of the Baseline visit (Day 0) under the supervision and instruction of the designated investigational site staff. […] The evaluator also assessed local application site irritation (dryness, scaling, pruritus, stinging and burning) at Baseline and Weeks 2, 4, 8 and 12 (end of study). […]

[2] = tested on: patients afflicted with papulopustular rosacea; test: IGA success (2-grade improvement to clear or almost clear), 12-week double-blind vehicle-controlled study of E-BPO cream; format: in vivo, human; details: four weeks
Description: as §1, §2, §3, §4

rosacea = details: BPO as the sole active agent; cited from earlier work

Q: With `O=C(OOC(=O)c1ccccc1)c1ccccc1` [BPO, Benzoyl peroxide] as the molecule, how does the “decrease in inflammatory lesions relative to the effect observed after treatment with vehicle cream” value ([1]; after at least 12 weeks of treatment) read?
A: more than 1.5 x

Q: And the “decrease in inflammatory lesions” value ([1]; after only 2 weeks of treatment, on average)?
A: about 40%

Q: What about the “success in IGA relative to the effect observed after treatment with SOOLANTRA” value [2] of the same molecule?
A: more than twice

Q: What about the response of lesions (rosacea) of the same molecule?
A: unresponsive

Reference: patent US20230106220A1, “METHOD FOR TREATMENT OF ROSACEA” (Sol-Gel Technologies Ltd., priority 2019, published 2023)
